In article PMC3884839, “Pharmacokinetics and pharmacodynamics utilizing unbound target tissue exposure as part of a disposition-based rationale for lead optimization of benzoxaboroles in the treatment of Stage 2 Human African Trypanosomiasis” (Parasitology, 2013):

Tests used:
[1] = Single oral dose pharmacokinetics and CNS penetration in male CD-1 mice; type: in vivo, mouse
Description: The CNS disposition and pharmacokinetics of the benzoxaboroles were evaluated in infected and uninfected mice following oral administration. In vivo phases of single-dose rodent PK studies were performed at Vivisource (Waltham, MA) following Institutional Animal Care and Use Committee (IACUC) review in an Association for Assessment and Accreditation of Laboratory Animal Care International (AAALAC)-approved facility. Studies in Trypanosoma brucei brucei (TREU 667 strain) infected mice, or uninfected satellite animals, were performed after IACUC review at Pace University (NewYork, NY).
Male CD-1 or female Swiss Webster mice (approximately 25 g) were administered test compounds by oral gavage either once (QD) or twice per day (Q12 h) with doses ranging between 6 and 100 mg kg^−1 as described below. All compounds were formulated as an in situ sodium salt in 2% (v/v) ethanol, 5% (m/v) dextrose, to yield typically clear colourless solutions that were administered at 4 mL kg^−1. Blood samples for pharmacokinetic studies were collected into polypropylene tubes containing K2EDTA anticoagulant and stored on wet ice until centrifuged and processed to plasma. Plasma was stored at −80 °C. Blood samples from mice were collected via cardiac puncture under terminal anaesthesia. Rodents were euthanized in a CO2 chamber before collection of terminal blood or tissue samples. Brain tissues were blotted dry and stored at approximately −80 °C.
Plasma (50 μL) was treated with 4 volumes of ice-cold methanol (containing 25 ng mL^−1 of either deuterium (d6)-labelled SCYX-7158 internal standard (SCYX-5232) for SCYX-7158 analyses or a related benzoxaborole for other compounds) to precipitate proteins. Treated samples were gently mixed on a 96-well plate shaker for approximately 10 min then centrifuged at approximately 3000 g and 15 °C for 15 min. Supernatants were transferred to fresh 96-well plates for analysis by means of LC-MSMS. Samples of tissue homogenate (50 μL), or buffer from protein binding studies, were treated similarly to plasma samples.
All biological samples were assayed by a verified LC-MSMS method employing two dimensional chromatographic separation to overcome ion suppression (Annesely, [2003]) caused by co-elution of endogenous components with benzoxaboroles. In summary, treated samples were loaded onto Phenomenex (Torrance, CA) Synergi Polar RP, 4 μ, 50×2 mm extraction columns and subsequently back-eluted onto a Phenomenex Luna C8(2) 3 μ, 50×2 mm analytical columns protected by a Phenomenex C8 guard cartridge. Mobile phases for extraction and analytical columns consisted of 5 mM ammonium formate and 0·1% (v/v) formic acid in water (A), and 5 mM ammonium formate and 0·1% (v/v) formic acid in methanol (B). […]

T. b. brucei (TREU 667) = experiment: Murine model of Stage 2 (CNS) HAT; type: in vivo, mouse
Description: The efficacy of benzoxaboroles was evaluated in a murine model of Stage 2 (CNS) HAT (Nare et al. [2010]; Jacobs et al. [2011]). In summary, mice (n = 10 per group) were infected by bolus i.p. injection of 1×10^4 T. b. brucei (TREU 667) parasites. A single bolus i.p. dose (10 mg kg^-1) of berenil (Sigma-Aldrich, St. Louis, MO) was administered on day 4 as a positive treatment control for haemolymphatic-stage infection. Infection of the remaining animals proceeded for 21 days to establish a CNS infection before treatment with either a single dose of berenil (as above) or test compounds by the oral route either once or twice daily over 7 days at the doses indicated below. Animals were checked at least weekly for parasitaemia and were immediately removed from cages and euthanized upon recrudescence. Animals were considered cured if they were […] for at least 180 days after treatment.

[2] = 6·25 mg kg^−1 day^−1 oral for 7 days

With `CC1(C)OB(O)c2cc(NC(=O)c3ccc(F)cc3C(F)(F)F)ccc21` [SCYX-7158] as the molecule, how does the “time CNS (brain) total concentration above MIC” value [1] read?
The value was ~20 h.

And the cure outcome (T. b. brucei (TREU 667); 50 mg kg^−1, single oral dose)?
Its cure outcome is “No animals were cured”.

And the cure rate (T. b. brucei (TREU 667); 50 mg kg^−1 oral, ⩾3 days of dosing)?
The cure rate was 100%.

And the “day of recrudescence of parasitaemia after infection” value (T. b. brucei (TREU 667); [2])?
The value was ~35 days.

And the treatment outcome (T. b. brucei (TREU 667); [2])?
Its treatment outcome is “cleared of haemolymphatic T. b. brucei but demonstrated recrudescence of parasitaemia”.

And the cure rate (T. b. brucei (TREU 667); 12·5 mg kg^−1 oral once daily for 7 days)?
The cure rate was 80%.

And the cure outcome (T. b. brucei (TREU 667); ⩾25 mg kg^−1 day^−1 oral for 7 days)?
Its cure outcome is “complete cures”.
